Data on one substance can be found in patent publication EP2980218A1, “Aptamer thrombin complex for use as an antidote to direct acting thrombin inhibitors” (Rheinische Friedrich-Wilhelms-Universität Bonn, priority 2014, dated 2016).

Series [1] is described as follows: anticoagulation monitoring (anti-FIIa activity) after oral dabigatran in mice. Type of series: in vivo. The note with it: oral administration of 1 mg/g body weight dabigatran. The method, then: The in-vivo antidote properties of aptathrombin were studied in a mouse model after oral administration of 1 mg/g body weight dabigatran.
For series [2] the following is noted: humans, after dabigatran administration; cited from earlier work.

Regarding “N-[2-(4-Aminoiminomethylphenylamino)-1-methyl-1H-benzimidazol-5-ylcarbonyl]-N-(2-pyridyl)-beta-alanine [dabigatran]”, the “time to peak level of anti-FIIa activities” value in series [1] was in the range of 3 to 4 h. In series [2], the “plasma concentration, upper limit of the peak level” value is 280 ng/mL and the “time at which peak level is reached” value is 2 to 4 h.
